Assay in all cases: Pharmacodynamics in Th17-stimulated human skin on Franz cell, qPCR
Common to all, as to assay type: cell-based
What all share (conditions): control added to receptor solution at 40 hours and 16 hours prior to Th17 stimulation
In general terms: Real-time PCR tracks product formation cycle by cycle.

The test system of one assay is IL1-beta. How it is done:
(§1) Example 5 describes results of a study on the pharmacodynamics of composition identified as formulation identification no. OO14. In this study, human skin placed on a static in vitro diffusion cell and a fixed amount of the formulation was applied to the skin. The formulation was applied to the skin at either 16 hours prior to or both 40 hours and 16 hours prior to Th17 stimulation. The receptor solution was replaced with the Th17 stimulation media was incubated for 24 hours prior to harvesting. […] As a control, 0.01% betamethasone (BMV) was added to the receptor solution at both 40 hours and 16 hours prior to Th17 stimulation.
(§2) Freshly excised human skin was dermatomed to 750 microns with the stratum corneum intact and placed on a static Franz cell employing ˜0.6 cm^2 of skin. 10 μL of a topical formulation OO14 containing 0.079% synthetic indirubin was applied to the skin at either 16 hours prior to stimulation or both 40 hours and 16 hours prior to Th17 stimulation. As a control, 0.01% betamethasone (BMV) was added to the receptor solution at both 40 hours and 16 hours prior to Th17 stimulation. The Th17 stimulation media contains a mixture of cytokines and antibodies shown to induce Th17 polarization and was made and added as described in the skin resident immune cell activation assay in Smith S. H. et al., PLoS ONE 11(2): e0147979. The skin was cultured for an additional 24 hours prior to harvesting for qPCR and staining for AhR activation.

For a further assay, the system named is IL17-alpha. The method, then: as §1, §2
For the next assay, the system named is IL8. The method, then:
as §1, §2

A further assay relates to S100A7. The method, then:
as §1, §2

`C[C@H]1C[C@H]2[C@@H]3CCC4=CC(=O)C=C[C@]4(C)[C@@]3(F)[C@@H](O)C[C@]2(C)[C@@]1(O)C(=O)CO` [0.01% BMV, betamethasone]: the “% Inhibition Compared to Th17, IL1-beta” value in the assay on IL1-beta is given as 58.66%. The “% Inhibition Compared to Th17, IL17-alpha” value in the assay with IL17-alpha is given as 96.99%. In addition, the “% Inhibition Compared to Th17, IL8” value in the assay with IL8 is reported as 14.01%. The “% Inhibition Compared to Th17, S100A7” value in the assay with S100A7 is “N/I* (Not Inhibited compared to Th17)”.

Source of the values: patent US11154533B2, “Topical compositions and methods for treating inflammatory skin diseases” (Azora Therapeutics, Inc., priority 2019, dated 2021).
